Consider 1 compound from patent publication US10028956B2, “Methods of treating various cancers using an AXL/cMET inhibitor in combination with other agents” (Ignyta, Inc., priority 2013, dated 2018).

Molecules are shown by their SMILES. Marks after values point to notes of the source that are not given here.

Series [1] can be described thus: PK in monkey. As to conditions: in vivo.
Series [2] deals with c-Met (Homo sapiens, UniProt P08581). In words: Dissociation from c-Met, LanthaScreen Eu-kinase binding assay. Here is the method:
Assay buffer was prepared as for association, and used for all dilutions. A 5-μL aliquot of 80 nM LanthaScreen Eu-anti-GST antibody:20 nM GST-tagged enzyme mix was added to the Greiner low volume white 384-well plate, with antibody only added to control wells. Compound (100 nL) in DMSO was added by pintool at 2000-fold over the final assay concentration. DMSO was added to no inhibitor control wells. After a one-hour incubation at ambient temperature to allow formation of the enzyme-inhibitor complex, 2 μL of the reaction mix was transferred to a 384 Optiplate (PerkinElmer) and 78 μL of kinase tracer 236 was added. The final tracer concentration was 100 nM for AXL and 200 nM for c-Met. Readings were immediately initiated and total of 60 time points were taken at 2-min intervals, at 25° C. or 37° C. The background subtracted ratio was normalized to the no inhibitor control to calculate the % tracer bound, which was plotted with respect to time. The data was fitted to the one phase association model in GraphPad Prism (La Jolla Calif.).
On the technique in general: TR-FRET usually uses a lanthanide donor and a delayed reading to cut background.

Series [3] deals with GTL-16 gastric carcinoma xenografts. In words: Anti-tumor efficacy in GTL-16 gastric carcinoma xenografts. As to conditions: 10 and 30 mg/kg oral qd. The series is classed as in vivo, mice. The source says:
The human gastric cancer cell line, GTL-16 was purchased from ATCC (American Tissue Culture Collection, Manassas, Va.) and cultured in DMEM medium with 10% fetal bovine serum (FBS, Cat# SH3007003, Hyclone Laboratory Inc, Logan, Utah). Female Nu/Nu mice (6-8 weeks, Charles River Laboratory, Wilmington, Mass.) were maintained 5/cage in microisolator units on a standard laboratory diet (Teklad Labchow, Harlan Teklad, Madison, Wis.). Animals were housed under humidity- and temperature-controlled conditions and the light/dark cycle was set at 12-hour intervals. Mice were quarantined at least 1 week prior to experimental manipulation. […] The mice were then monitored daily. […] The length (L) and width (W) of each tumor was measured with a vernier caliper and the mouse body weight was determined every 2-3 days. The tumor volumes were then calculated with the formula of 0.5236*L*W*(L+W)/2. […] Plasma and tumor samples were obtained at 2 hours post final dose at each dose level, and the compound levels in plasma and tumor lysates were measured by LC-MS/MS. The TGI values were calculated at the end of study by comparing the tumor volumes (TV) of each CEP-40783-treatment group with those of vehicle-treated group with the following formula: 1-(the last day TV of compound-treated group/the last day TV of vehicle-treated group).

The nature of series [4]: Tolerability / body weight in the xenograft studies. The class given is in vivo. To be noted: in all of the above studies.
Series [5] relates to CTG-0170 erlotinib-insensitive primary NSCLC human TumorGraft. As to the kind of experiment: NSCLC TumorGraft model CTG-0170. The series is classed as in vivo, mice. As to conditions: for % Tumor Growth Inhibition: CTG-0170, 10 days. Here is the method: Methods (for the experiments shown in FIGS. 10 and 11) • Female immunocompromised nu/nu mice (Harlan) between 6-9 weeks of age were housed on irradiated papertwist-enriched ⅛″ corncob bedding (Sheperd) in individual HEPA ventilated cages (Innocage® IVC, Innovive USA) on a 12-hour light-dark cycle at 68-74° F. (20-23° C.) and 30-70% humidity. Animals were fed water ad libitum (reverse osmosis, 2 ppm Cl2) and an irradiated Test rodent diet (Teklad 2919) consisting of 19% protein, 9% fat, and 4% fiber. • Tumor Models: Champions TumorGraft models of NSCLC are owned by Champions Oncology. In this study, animals were implanted unilaterally on the right flank with tumor fragments harvested from host animals. […] Erlotinib (manufacturer: OSI Pharmaceuticals; National Drug Code: 50242-062-01; Lot #: US0002) was formulated using 100% PEG-400 as the vehicle according to manufacturer's specifications.
Efficacy measurements: Beginning Day 0, tumor dimensions were measured twice weekly by digital caliper (Fowler Ultra-Cal IV) and data including individual and mean estimated tumor volumes (Mean TV±SEM) were recorded for each group; tumor volume was calculated using the formula TV=width^2×length×0.52. At study completion, percent tumor growth inhibition (% TGI) values were calculated and reported for each treatment group (T) versus control (C) using initial (i) and final (f) tumor measurements by the formula: % TGI=1−Tf−Ti/Cf−C; single agent or combination therapies resulting in a TGI>50 at study completion are considered active in the tested model at the evaluated treatment regimen according to NCI guidelines. Individual mice reporting a tumor volume ≤50% of the Day 0 measurement for two consecutive measurements over a seven day period were considered partial responders (PR). If the PR persisted until study completion, percent tumor regression (% TR) was determined using the formula: % TR=1−Tf/Ti×100; a mean value was calculated if multiple PR mice occurred in one group. Individual mice lacking palpable tumors (<4×4 mm^2 for two consecutive measurements over a seven day period) were classified as complete responders (CR); a CR that persisted until study completion was considered a tumor-free survivor (TFS). TFS animals are excluded from efficacy calculations. Statistical differences in tumor volume were determined using a two-tailed One-Way Analysis of Variance (ANOVA) followed by the Dunett's multiple comparisons test comparing treated groups with control and combinations with standard agent alone when possible. All data collected in this study was managed electronically and stored on a redundant server system.

In series [6] the test system is 298 kinases. As to the kind of experiment: Kinome selectivity against 298 kinases. The class given is biochemical.
Series [7] in a line: PK in dog. As to conditions: in vivo.
The mark [8] stands for this setting: intravenous, 0.5 mg/kg i.v. and p.o.
The mark [9] stands for this setting: iv, 0.5 mg/kg i.v., read-out: t1/2 i.v. (converted).

c-Met, sequence (P08581 25-1390): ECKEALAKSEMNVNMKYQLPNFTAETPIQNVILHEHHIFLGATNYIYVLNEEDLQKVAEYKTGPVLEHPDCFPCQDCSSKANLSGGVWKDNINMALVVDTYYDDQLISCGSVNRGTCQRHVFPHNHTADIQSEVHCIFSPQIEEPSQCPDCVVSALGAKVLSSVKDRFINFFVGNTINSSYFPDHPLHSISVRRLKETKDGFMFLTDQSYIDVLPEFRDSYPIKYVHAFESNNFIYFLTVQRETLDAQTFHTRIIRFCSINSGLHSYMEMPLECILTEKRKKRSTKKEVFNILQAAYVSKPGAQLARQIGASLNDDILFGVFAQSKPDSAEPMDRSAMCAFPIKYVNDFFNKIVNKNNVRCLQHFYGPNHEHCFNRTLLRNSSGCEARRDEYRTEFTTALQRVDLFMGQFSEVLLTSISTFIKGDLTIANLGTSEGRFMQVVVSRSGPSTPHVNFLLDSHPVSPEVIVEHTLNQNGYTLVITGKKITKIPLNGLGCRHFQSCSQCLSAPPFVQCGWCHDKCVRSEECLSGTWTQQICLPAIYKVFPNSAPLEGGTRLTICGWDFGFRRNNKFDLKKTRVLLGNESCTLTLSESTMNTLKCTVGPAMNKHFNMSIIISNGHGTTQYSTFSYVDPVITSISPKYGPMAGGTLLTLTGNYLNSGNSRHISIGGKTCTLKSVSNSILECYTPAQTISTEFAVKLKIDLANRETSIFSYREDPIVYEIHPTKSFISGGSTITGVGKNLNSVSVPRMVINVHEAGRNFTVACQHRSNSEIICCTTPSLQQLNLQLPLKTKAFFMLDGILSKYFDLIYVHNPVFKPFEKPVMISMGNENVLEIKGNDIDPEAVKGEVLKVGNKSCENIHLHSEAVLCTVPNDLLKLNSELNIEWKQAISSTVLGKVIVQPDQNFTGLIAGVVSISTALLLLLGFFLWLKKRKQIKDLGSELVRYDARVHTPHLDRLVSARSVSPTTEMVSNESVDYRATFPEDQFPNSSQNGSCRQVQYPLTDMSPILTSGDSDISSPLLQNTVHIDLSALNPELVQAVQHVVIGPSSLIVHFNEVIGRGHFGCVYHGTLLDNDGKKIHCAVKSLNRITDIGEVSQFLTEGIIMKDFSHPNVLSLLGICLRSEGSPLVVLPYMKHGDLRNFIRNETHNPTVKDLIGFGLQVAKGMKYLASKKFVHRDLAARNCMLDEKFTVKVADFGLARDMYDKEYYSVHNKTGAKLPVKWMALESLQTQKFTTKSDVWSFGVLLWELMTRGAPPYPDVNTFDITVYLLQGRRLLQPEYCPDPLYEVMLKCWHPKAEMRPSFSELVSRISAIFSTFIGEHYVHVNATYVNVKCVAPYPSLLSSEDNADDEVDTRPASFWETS

What is called Cmax is the maximum level reached in the sampled fluid or tissue. One may read the bioavailability as dose-corrected exposure relative to a reference, in per cent. One may read the AUC(0-t) as the area under the concentration-time curve up to a stated or last time point. As for `COc1cc2nccc(Oc3ccc(NC(=O)c4cn(C(C)C)c(=O)n(-c5ccc(F)cc5)c4=O)cc3F)c2cc1OC` [CEP-40783, 3-(4-Fluorophenyl)-1-isopropyl-2,4-dioxo-1,2,3,4-tetrahydropyrimidine-5-carboxylic acid [4-(6,7-dimethoxyquinolin-4-yloxy)-3-fluorophenyl]-amide], the Cmax in series [1] (0.5 mg/kg i.v. and p.o.) was 260 ng/mL; in series [7] (0.5 mg/kg i.v. and p.o.), 1170 ng/mL. In addition, the Vd was determined as 1.2 L/kg in series [1] (setting [8]) and 1.3 L/kg in series [7] (setting [8]). Also, the clearance in series [1] (setting [8]) came out at 2.2 mL/min/kg; in series [7] (setting [8]) it was 0.5 mL/min/kg. Besides, the half-life is 14.5 h in series [1] (setting [9]) and 27.6 h in series [7] (setting [9]). Besides, the bioavailability in series [1] (oral, 0.5 mg/kg i.v. and p.o.) amounted to 77%; in series [7] (oral, 0.5 mg/kg i.v. and p.o.), 100%. Moreover, the AUC(0-t) in series [1] (po, 0.5 mg/kg p.o.) was found to be 3030 ng·h/mL; in series [7] (po, 0.5 mg/kg p.o.) it was 14400 ng·h/mL. For the same compound, in series [2] (25° C.), the “off-rate from c-Met” value is listed as “very slow”. The “dissociation rate from c-Met at higher temperature” value in series [2] (37° C. versus 25° C.) is “slightly enhanced”. Also, in series [3], the “anti-tumor efficacy (tumor volume)” value is “tumor stasis and regressions”. The “tolerability, body weight” value in series [4] is “well tolerated with no compound-related body weight loss”. Besides, the “% Tumor Growth Inhibition” value in series [5] (10 mg/kg po/qd) came out at 104%*†; in series [5] (30 mg/kg po/qd) it was 107%*†. Besides, the “efficacy in erlotinib-insensitive TumorGraft” value in series [5] (CTG-0170, oral 10 mg/kg and 30 mg/kg) is given as “tumor regressions”. Also, the “S90 (fraction of kinases showing >90% inhibition at 1 μM)” value in series [6] is recorded as 0.04.
